In ChEMBL document CHEMBL3352370, “Substrate derived peptidic α-ketoamides as inhibitors of the malarial protease PfSUB1” (Bioorg Med Chem Lett, 2014):
Numbered stars: 1 amine (or outer) side, 2 acyl side, 3 side chain; on linkers, the order of the positions; unused ones are H or OH. Square brackets hold non-standard residues; d marks the D form. Peptide text beside a SMILES is read from it. ξ: configuration not given here. ξ3Amino2oxobutanoyl = CC(N[*:1])C(=O)C(=O)[*:2]; GABA = NCCCC(=O)O; βAla = NCCC(=O)O

molecular target: T1, Subtilisin-like protease 1 (Plasmodium falciparum, UniProt O61142); experiment: Inhibition of Plasmodium falciparum SUB1
T1 sequence (O61142 whole entry): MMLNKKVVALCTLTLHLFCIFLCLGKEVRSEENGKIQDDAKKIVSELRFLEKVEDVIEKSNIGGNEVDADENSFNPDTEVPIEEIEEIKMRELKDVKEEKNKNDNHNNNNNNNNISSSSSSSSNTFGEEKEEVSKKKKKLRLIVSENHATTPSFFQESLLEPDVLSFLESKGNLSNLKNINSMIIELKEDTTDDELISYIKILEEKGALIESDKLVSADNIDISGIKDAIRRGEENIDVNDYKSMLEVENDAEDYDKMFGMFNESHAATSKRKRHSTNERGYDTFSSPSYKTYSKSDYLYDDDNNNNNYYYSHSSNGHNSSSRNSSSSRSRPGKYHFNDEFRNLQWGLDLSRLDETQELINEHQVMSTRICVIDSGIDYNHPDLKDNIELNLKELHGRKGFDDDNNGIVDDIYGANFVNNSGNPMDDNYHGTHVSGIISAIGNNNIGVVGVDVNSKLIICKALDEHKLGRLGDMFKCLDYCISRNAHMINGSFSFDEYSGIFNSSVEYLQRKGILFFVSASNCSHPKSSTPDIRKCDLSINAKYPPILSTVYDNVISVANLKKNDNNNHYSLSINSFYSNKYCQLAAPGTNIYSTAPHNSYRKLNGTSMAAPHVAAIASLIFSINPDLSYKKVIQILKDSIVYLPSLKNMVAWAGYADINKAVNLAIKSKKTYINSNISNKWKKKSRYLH

| Compound | IC50 [µM] | Ki [µM] |
| --- | --- | --- |
| CC(=O)N[C@@H](C)C(=O)N[C@H](C(=O)NCC(=O)NC(C)C(=O)C(=O)NCCC(=O)O)[C@@H](C)O (stereo partly drawn) | > 50 |  |
| CC[C@H](C)[C@H](NC(C)=O)C(=O)N[C@H](C(=O)NCC(=O)NC(C(=O)C(=O)NCCC(=O)O)C(C)C)[C@@H](C)O (stereo partly drawn) | 4.5 |  |
| CC[C@H](C)[C@H](NC(C)=O)C(=O)N[C@@H](C)C(=O)N[C@@H](C)C(=O)NC(C)C(=O)C(=O)NCCC(=O)O (stereo partly drawn) | 30 |  |
| CC[C@H](C)[C@H](NC(C)=O)C(=O)N[C@H](C(=O)N[C@@H](C)C(=O)NC(C(=O)C(=O)NCCC(=O)O)c1ccccc1)[C@@H](C)O (stereo partly drawn) | > 50 |  |
| CC[C@H](C)[C@H](NC(C)=O)C(=O)N[C@H](C(=O)NC(C)(C)C(=O)NC(C)C(=O)C(=O)NCCC(=O)O)[C@@H](C)O (stereo partly drawn) | > 50 |  |
| O=C(CCCCCNC(=O)CCCC[C@@H]1SC[C@@H]2NC(=O)N[C@@H]21)NCCCCCC(=O)Nc1ccc2c(Cl)c(OCCc3ccccc3)oc(=O)c2c1 | 18 |  |
| Oc1ccc(C2Oc3c(c(O)cc4c3C3c5c(O)cc(O)c(O)c5OC(c5ccc(O)c(O)c5)(O4)C3O)CC2O)cc1O (stereo not drawn) | 0.3 |  |
| COc1ccc(Nc2cc(C)c3cc(NC(=O)c4cc5ccccc5[nH]4)ccc3n2)cc1 |  | 6 |
| CC[C@H](C)[C@H](NC(=O)[C@H](CCCCN)NC(C)=O)C(=O)N[C@H](C(=O)N[C@@H](C)C(=O)NC(C)C(=O)C(=O)NCCC(N)=O)[C@@H](C)O (stereo partly drawn) (Ac-KITA[ξ3Amino2oxobutanoyl][βAla]-NH2) | 38 |  |
| CC[C@H](C)[C@H](NC(=O)[C@H](CCCCN)NC(C)=O)C(=O)N[C@H](C(=O)N[C@@H](C)C(=O)NC(C)C(=O)C(=O)NCCCC(=O)O)[C@@H](C)O (stereo partly drawn) (Ac-KITA[ξ3Amino2oxobutanoyl][GABA]-OH) | 3.1 |  |
| CC[C@@H](C)[C@H](NC(=O)[C@H](CCCCN)NC(C)=O)C(=O)N[C@H](C(=O)N[C@@H](C)C(=O)NC(CCC(N)=O)C(=O)C(=O)NCCC(=O)O)[C@@H](C)O (stereo partly drawn) | 7 |  |
| CC[C@H](C)[C@H](NC(=O)[C@H](CCCCN)NC(C)=O)C(=O)N[C@H](C(=O)N[C@@H](C)C(=O)NC(C)C(=O)C(=O)NCC(=O)O)[C@@H](C)O (stereo partly drawn) (Ac-KITA[ξ3Amino2oxobutanoyl]G-OH) | 10 |  |
| CC[C@H](C)[C@H](NC(=O)[C@H](CCCCN)NC(C)=O)C(=O)N[C@H](C(=O)N[C@@H](C)C(=O)NC(C)C(=O)C(=O)NCCC(=O)O)[C@@H](C)O (stereo partly drawn) (Ac-KITA[ξ3Amino2oxobutanoyl][βAla]-OH) | 1 |  |
| CC[C@H](C)[C@H](NC(C)=O)C(=O)N[C@H](C(=O)NC1(C(=O)NC(C)C(=O)C(=O)NCCC(=O)O)CC1)[C@@H](C)O (stereo partly drawn) | > 50 |  |
| O=C(Nc1ccc(-c2nc3cc(NC(=O)c4ccccc4)ccc3[nH]2)cc1)c1ccccc1 |  | 8 |

The remaining lines, values ahead:

| IC50 [µM] | Ki [µM] | Compound |
| --- | --- | --- |
| 100 |  | CC[C@H](C)[C@H](NC(C)=O)C(=O)N[C@H](C(=O)N[C@@H](C)C(=O)NC(Cc1ccccc1)C(=O)C(=O)NCCC(=O)O)[C@@H](C)O (stereo partly drawn) |
| > 50 |  | CC[C@H](C)[C@H](NC(C)=O)C(=O)N[C@H](C(=O)N[C@@H](C)C(=O)NC(C[C@@H]1CCNC1=O)C(=O)C(=O)NCCC(=O)O)[C@@H](C)O (stereo partly drawn) |
| 5 |  | CC[C@H](C)[C@H](NC(C)=O)C(=O)N[C@H](C(=O)N[C@@H](C)C(=O)NC(CCC(=O)O)C(=O)C(=O)NCCC(=O)O)[C@@H](C)O (stereo partly drawn) |
| 2.5 |  | CC[C@H](C)[C@H](NC(C)=O)C(=O)N[C@H](C(=O)N[C@@H](C)C(=O)NC(C)C(=O)C(=O)NCCC(=O)O)[C@@H](C)O (stereo partly drawn) |
| 0.9 |  | CC[C@H](C)[C@H](NC(C)=O)C(=O)N[C@H](C(=O)NCC(=O)NC(C)C(=O)C(=O)NCCC(=O)O)[C@@H](C)O (stereo partly drawn) |
| > 50 |  | CC[C@H](C)[C@H](NC(C)=O)C(=O)N[C@H](C(=O)N[C@@H](C)C(=O)NC(CCC(=O)N(C)C)C(=O)C(=O)NCCC(=O)O)[C@@H](C)O (stereo partly drawn) |
| 20 |  | CC[C@H](C)[C@H](NC(C)=O)C(=O)N[C@H](C(=O)N[C@@H](C)C(=O)NC(C(=O)C(=O)NCCC(=O)O)C(C)C)[C@@H](C)O (stereo partly drawn) |
| 1.2 |  | CCC(NC(=O)CNC(=O)[C@@H](NC(=O)[C@@H](NC(C)=O)[C@@H](C)CC)[C@@H](C)O)C(=O)C(=O)NCCC(=O)O (stereo partly drawn) |
